Data from patent publication US12194029B1, “Ethyl-1-(substitutedbenzoyl)-5-methylpyrrolo[1,2-a]quinoline-3-carboxylates as anticancer agents” (KING FAISAL UNIVERSITY, priority 2023, dated 2025).

Legend:
[1] = test system: human breast cancer cell line (MCF-7); assay: MTT cell viability / in vitro cytotoxicity assay, MCF-7; assay type: cell-based; details: MCF7, MCF-7 cells, 48 h incubation, read-out: anticancer IC50 MCF-7
Protocol: (§1) The human breast cancer cell line (MCF-7), and adeno carcinomic human alveolar basal epithelial cell line (A-549), were used in the present study for the investigation of cell viability assay of the synthesized compounds.
(§2) The cells were seeded in a 96-well flat-bottom microplate and maintained at 37° C. in 95% humidity and 5% CO2 overnight. The microplates were then treated with different concentrations (5-100 μM) of the samples. The cells were incubated for another 48 h. The wells were washed twice with PBS and 20 μL of the MTT staining solution was added to each well and the plate was incubated at 37° C. After 4 h, 100 μL of DMSO was added to each well to dissolve the formazan crystals and absorbance was recorded with a 570 nm using a microplate reader.
(§3) In vitro cytotoxicity was performed by 3-(4,5-dimethylthiazol-2-yl)-2,5-di-phenyltetrazolium bromide (MTT) assay. Tested compounds were dissolved in DMSO by heating at 95° C. for 10 min, cooled at room temperature and final stock concentration of 1 mg/mL was prepared in DMEM (final DMSO concentration was <1%). The stock solutions were serially diluted to obtain the concentration range of 25 to 400 μM using DMEM, and cells were treated in triplicates. Untreated cells represented a control group and pac. treated as a positive control. After 48 h of incubation, the media was aspirated, 100 μL MTT (1 mg/mL) was added to each well and the plate was incubated at 37° C. for 4 h. After incubation, the media/MTT solution was aspirated and 100 μL DMSO was added to all the wells. Using a multi-mode microplate reader, a uniform shaking (for 5 min) was applied to dissolve Formazan crystals and the absorbance was recorded at 570 nm. Cell viability was calculated using the following equation: […]
(§4) The 50% […] inhibitory concentration (IC50) was determined using Prism software version 7. Using graph Pad Prism Version 5.1, IC50 values of the compounds were calculated.
(§5) Statistical analysis of the cytotoxicity data was performed on GraphPad Prism. All cytotoxicity experiments were conducted in triplicates. Results were analyzed as the standard error of the mean (SEM) and one-way analysis of variance (ANOVA) and the Dunnet multiple comparison test was used to evaluate the treated groups and the control. Further Bonferroni post-tests were performed for comparison of the complex with cis-platin. Differences were considered significant when p<0.05.

[2] = test system: adeno carcinomic human alveolar basal epithelial cell line (A-549); assay: MTT cell viability / in vitro cytotoxicity assay, A-549; assay type: cell-based; details: A549, A-549 cells, 48 h incubation, read-out: anticancer IC50 A-549
Protocol: as §1, §2, §3, §4, §5

Row | SMILES | IC50 [1] [nM] | IC50 [2] [nM]
1 | CCOC(=O)c1cc(C(=O)c2ccccc2[N+](=O)[O-])n2c1cc(C)c1ccccc12 [Compound 3d, Ethyl-5-methyl-1-(2-nitrobenzoyl)pyrrolo[1,2-a]quinoline-3-carboxylate] | 85 | 291
2 | COC(=O)c1c(C(=O)OC)c2cc(C)c3ccccc3n2c1C(=O)c1cc(C(F)(F)F)cc(C(F)(F)F)c1 [Compound 3a, Dimethyl-1-(3,5-bis(trifluoromethyl)benzoyl)-5-methylpyrrolo[1,2-a]quinoline-2,3-dicarboxylate] | 272 | 433
3 | COC(=O)c1c(C(=O)OC)c2cc(C)c3ccccc3n2c1C(=O)c1ccc(F)cc1 [Compound 3i, Dimethyl-1-(4-fluorobenzoyl)-5-methylpyrrolo[1,2-a]quinoline-2,3-dicarboxylate] | 209 | 183
4 | COC(=O)c1c(C(=O)OC)c2cc(C)c3ccccc3n2c1C(=O)c1ccccc1[N+](=O)[O-] [Compound 3c, Dimethyl-5-methyl-1-(2-nitrobenzoyl)pyrrolo[1,2-a]quinoline-2,3-dicarboxylate] | 15 | 316
5 | CCOC(=O)c1cc(C(=O)c2cc(C(F)(F)F)cc(C(F)(F)F)c2)n2c1cc(C)c1ccccc12 [Compound 3b, Ethyl-1-(3,5-bis(trifluoromethyl)benzoyl)-5-methylpyrrolo[1,2-a]quinoline-3-carboxylate] | 27 | 99
